≈ marks a conversion by molar mass, not a printed value.
Experiments:
Type in all cases: cell-based
N. gonorrhoeae WHO-Z = test: Broth microdilution MIC, N. gonorrhoeae; settings: Neisseria gonorrhoeae, read-out: MIC (μg/mL) Gram-negative GC
Method: (§1) The test compounds including vancomycin hydrochloride were supplied as a 6.4 mg/mL solution in 100% dimethyl sulfoxide (DMSO) aliquoted into individual wells of a 96-well plate (50 μL per well). […] Standardized inocula were added to the MIC test plates, which were incubated for the prescribed times at 35° C. The N. gonorrhoeae strain was incubated in an atmosphere containing 5% CO2.
(§2) The final optical density of each well at 600 nm was measured using a Tecan Spark plate reader. The compound concentration versus OD600 data were then curve fit using custom software. An MIC value was defined as the lowest compound concentration that led to an OD600 value≤0.15 for the E. coli, K. pneumoniae, P. aeruginosa, A. baumannii, or S. aureus strains. For the N. gonorrhoeae strain, an OD600 value≤0.19 was used as a cutoff to define an MIC value; this higher cut-off value was required because the N. gonorrhoeae MIC plates were covered with plastic seals that increased the background OD600 value.
(§3) JMI Laboratories followed current CLSI quality assurance practices when performing the susceptibility tests. MIC values were validated by concurrently testing the CLSI-recommended ATCC QC reference strains S. aureus ATCC 29213 and K. pneumoniae ATCC 700603. The inoculum density during susceptibility testing was monitored by bacterial colony counts. Where applicable, QC ranges for tested reference strains were those ranges approved or published by CLSI for testing in CAMHB. […] Importantly, the CLSI reference method for testing N. gonorrhoeae is the agar dilution MIC method, which was not used here. Thus, CLSI MIC QC ranges for N. gonorrhoeae could not be applied to the antimicrobials studied here.
(§4) Abbreviations: EC, E. coli (wild-type) BW25113; EC efflux^−, E. coli (tolC) JW5503-1; KPN, K. pneumoniae ATCC 700603; PSA, P. aeruginosa PAO1; PSA efflux^−, P. aeruginosa (multi-pump-gene mutant) PAM1626; ACB, A. baumannii JMI #1186154; GC, N. gonorrhoeae WHO-Z; SA, S. aureus ATCC 29213. Broth microdilution MIC values were measured in iron-depleted CAMHB for all strains except for GC, which was tested in fastidious broth.

S. aureus ATCC 29213 = test: Broth microdilution MIC, S. aureus; settings: Staphylococcus aureus, ATCC29213, iron-depleted CAMHB, OD600 ≤0.15, read-out: MIC (μg/mL) Gram positive SA
Method: as §1, §2, §3, §4

[1] = tested on: P. aeruginosa (multi-pump-gene mutant) PAM1626; test: Broth microdilution MIC, P. aeruginosa efflux-deficient; settings: Pseudomonas aeruginosa, read-out: MIC (μg/mL) Gram-negative PSA Efflux
Method: as §1, §2, §3, §4

[2] = tested on: E. coli (wild-type) BW25113; test: Broth microdilution MIC, E. coli wild-type; settings: Escherichia coli, iron-depleted CAMHB, OD600 ≤0.15, read-out: MIC (μg/mL) Gram-negative EC
Method: as §1, §2, §3, §4

P. aeruginosa PAO1 = test: Broth microdilution MIC, P. aeruginosa; settings: Pseudomonas aeruginosa, iron-depleted CAMHB, OD600 ≤0.15, read-out: MIC (μg/mL) Gram-negative PSA
Method: as §1, §2, §3, §4

[3] = tested on: K. pneumoniae ATCC 700603; test: Broth microdilution MIC, K. pneumoniae; settings: Klebsiella pneumoniae, ATCC700603, read-out: MIC (μg/mL) Gram-negative KPN
Method: as §1, §2, §3, §4

[4] = tested on: A. baumannii JMI #1186154; test: Broth microdilution MIC, A. baumannii; settings: Acinetobacter baumannii, iron-depleted CAMHB, OD600 ≤0.15, read-out: MIC (μg/mL) Gram-negative ACB
Method: as §1, §2, §3, §4

E. coli (tolC) JW5503-1 = test: Broth microdilution MIC, E. coli efflux-deficient (tolC); settings: Escherichia coli, read-out: MIC (μg/mL) Gram-negative EC Efflux
Method: as §1, §2, §3, §4

SMILES | MIC (N. gonorrhoeae WHO-Z) | MIC (S. aureus ATCC 29213) | MIC [1] | MIC [2] | MIC (P. aeruginosa PAO1) | MIC [3] | MIC [4] | MIC (E. coli (tolC) JW5503-1)
CN[C@H](CC(C)C)C(=O)N[C@H]1C(=O)N[C@@H](CC(N)=O)C(=O)N[C@H]2C(=O)N[C@H]3C(=O)N[C@H](C(=O)N[C@H](C(=O)NCCCCCCNC(=O)c4ccc(O)c(O)c4Cl)c4cc(O)cc(O)c4-c4cc3ccc4O)[C@H](O)c3ccc(c(Cl)c3)Oc3cc2cc(c3O[C@@H]2O[C@H](CO)C(O)C(O)[C@H]2O[C@H]2CC(C)(N)[C@H](O)[C@H](C)O2)Oc2ccc(cc2Cl)[C@H]1O (stereo partly drawn) [Compound 7] | > 64 µg/mL | 4 µg/mL (≈ 2.33 µM) | > 64 µg/mL | 64 µg/mL (≈ 37.3 µM) | > 64 µg/mL | > 64 µg/mL | 1 µg/mL (≈ 0.582 µM) | 64 µg/mL (≈ 37.3 µM)
CN[C@H](CC(C)C)C(=O)N[C@H]1C(=O)N[C@@H](CC(N)=O)C(=O)N[C@H]2C(=O)N[C@H]3C(=O)N[C@H](C(=O)N[C@H](C(=O)NCCCCCCCNC(=O)c4ccc(O)c(O)c4Cl)c4cc(O)cc(O)c4-c4cc3ccc4O)[C@H](O)c3ccc(c(Cl)c3)Oc3cc2cc(c3O[C@@H]2O[C@H](CO)C(O)C(O)[C@H]2O[C@H]2CC(C)(N)[C@H](O)[C@H](C)O2)Oc2ccc(cc2Cl)[C@H]1O (stereo partly drawn) [Compound 8] | > 64 µg/mL | 4 µg/mL (≈ 2.31 µM) | > 64 µg/mL | 64 µg/mL (≈ 37 µM) | > 64 µg/mL | > 64 µg/mL | 2 µg/mL (≈ 1.15 µM) | 64 µg/mL (≈ 37 µM)
CN[C@H](CC(C)C)C(=O)N[C@H]1C(=O)N[C@@H](CC(N)=O)C(=O)N[C@H]2C(=O)N[C@H]3C(=O)N[C@H](C(=O)N[C@H](C(=O)NCCCCCCCCNC(=O)c4ccc(O)c(O)c4Cl)c4cc(O)cc(O)c4-c4cc3ccc4O)[C@H](O)c3ccc(c(Cl)c3)Oc3cc2cc(c3O[C@@H]2O[C@H](CO)C(O)C(O)[C@H]2O[C@H]2CC(C)(N)[C@H](O)[C@H](C)O2)Oc2ccc(cc2Cl)[C@H]1O (stereo partly drawn) [Compound 9] | > 64 µg/mL | 4 µg/mL (≈ 2.29 µM) | > 64 µg/mL | 64 µg/mL (≈ 36.7 µM) | > 64 µg/mL | > 64 µg/mL | 8 µg/mL (≈ 4.58 µM) | 64 µg/mL (≈ 36.7 µM)
CN[C@H](CC(C)C)C(=O)N[C@H]1C(=O)N[C@@H](CC(N)=O)C(=O)N[C@H]2C(=O)N[C@H]3C(=O)N[C@H](C(=O)N[C@H](C(=O)NCCCNC(=O)c4cccc(O)c4O)c4cc(O)cc(O)c4-c4cc3ccc4O)[C@H](O)c3ccc(c(Cl)c3)Oc3cc2cc(c3O[C@@H]2O[C@H](CO)C(O)C(O)[C@H]2O[C@H]2CC(C)(N)[C@H](O)[C@H](C)O2)Oc2ccc(cc2Cl)[C@H]1O (stereo partly drawn) [Compound 12] | > 64 µg/mL | 2 µg/mL (≈ 1.22 µM) | > 64 µg/mL | 64 µg/mL (≈ 39 µM) | > 64 µg/mL | > 64 µg/mL | 4 µg/mL (≈ 2.44 µM) | 64 µg/mL (≈ 39 µM)
CN[C@H](CC(C)C)C(=O)N[C@H]1C(=O)N[C@@H](CC(N)=O)C(=O)N[C@H]2C(=O)N[C@H]3C(=O)N[C@H](C(=O)N[C@H](C(=O)NCCCCNC(=O)c4cccc(O)c4O)c4cc(O)cc(O)c4-c4cc3ccc4O)[C@H](O)c3ccc(c(Cl)c3)Oc3cc2cc(c3O[C@@H]2O[C@H](CO)C(O)C(O)[C@H]2O[C@H]2CC(C)(N)[C@H](O)[C@H](C)O2)Oc2ccc(cc2Cl)[C@H]1O (stereo partly drawn) [Compound 13] | > 64 µg/mL | 2 µg/mL (≈ 1.21 µM) | > 64 µg/mL | 64 µg/mL (≈ 38.7 µM) | > 64 µg/mL | > 64 µg/mL | 4 µg/mL (≈ 2.42 µM) | > 64 µg/mL
CNC(CC(C)C)C(=O)NC1C(=O)NC(CC(N)=O)C(=O)NC2C(=O)NC3C(=O)NC(C(=O)N[C@H](C(=O)NCCc4cn(CCNC(=O)c5cccc(O)c5O)nn4)c4cc(O)cc(O)c4-c4cc3ccc4O)C(O)c3ccc(c(Cl)c3)Oc3cc2cc(c3OC2OC(CO)C(O)C(O)C2OC2CC(C)(N)C(O)C(C)O2)Oc2ccc(cc2Cl)C1O (stereo partly drawn) [Compound 15] | > 64 µg/mL | 4 µg/mL (≈ 2.32 µM) | > 64 µg/mL | > 64 µg/mL | > 64 µg/mL | > 64 µg/mL | 16 µg/mL (≈ 9.29 µM) | > 64 µg/mL
CN[C@H](CC(C)C)C(=O)N[C@H]1C(=O)N[C@@H](CC(N)=O)C(=O)N[C@H]2C(=O)N[C@H]3C(=O)N[C@H](C(=O)N[C@H](C(=O)NCCCNS(=O)(=O)c4ccc(O)c(O)c4)c4cc(O)cc(O)c4-c4cc3ccc4O)[C@H](O)c3ccc(c(Cl)c3)Oc3cc2cc(c3O[C@@H]2O[C@H](CO)C(O)C(O)[C@H]2O[C@H]2CC(C)(N)[C@H](O)[C@H](C)O2)Oc2ccc(cc2Cl)[C@H]1O (stereo partly drawn) [Compound 16] | > 64 µg/mL | 4 µg/mL (≈ 2.38 µM) | > 64 µg/mL | 32 µg/mL (≈ 19.1 µM) | > 64 µg/mL | > 64 µg/mL | 4 µg/mL (≈ 2.38 µM) | 64 µg/mL (≈ 38.2 µM)
CN[C@H](CC(C)C)C(=O)N[C@H]1C(=O)N[C@@H](CC(N)=O)C(=O)N[C@H]2C(=O)N[C@H]3C(=O)N[C@H](C(=O)N[C@H](C(=O)NCCCCNS(=O)(=O)c4ccc(O)c(O)c4)c4cc(O)cc(O)c4-c4cc3ccc4O)[C@H](O)c3ccc(c(Cl)c3)Oc3cc2cc(c3O[C@@H]2O[C@H](CO)C(O)C(O)[C@H]2O[C@H]2CC(C)(N)[C@H](O)[C@H](C)O2)Oc2ccc(cc2Cl)[C@H]1O (stereo partly drawn) [Compound 17] | > 64 µg/mL | 2 µg/mL (≈ 1.18 µM) | > 64 µg/mL | 32 µg/mL (≈ 18.9 µM) | > 64 µg/mL | > 64 µg/mL | 2 µg/mL (≈ 1.18 µM) | 64 µg/mL (≈ 37.8 µM)
CNC(CC(C)C)C(=O)N[C@H]1C(=O)N[C@@H](CC(N)=O)C(=O)N[C@H]2C(=O)N[C@H]3C(=O)N[C@H](C(=O)N[C@@H](C(=O)NCc4cn(CCNC(=O)c5ccc(O)c(O)c5Cl)nn4)c4cc(O)cc(O)c4-c4cc3ccc4O)[C@H](O)c3ccc(c(Cl)c3)Oc3cc2cc(c3OC2O[C@H](CO)C(O)C(O)[C@H]2O[C@H]2CC(C)(N)[C@H](O)C(C)O2)Oc2ccc(cc2Cl)[C@H]1O (stereo partly drawn) [Compound 19] | > 64 µg/mL | 8 µg/mL (≈ 4.59 µM) | > 64 µg/mL | > 64 µg/mL | > 64 µg/mL | > 64 µg/mL | 1 µg/mL (≈ 0.574 µM) | > 64 µg/mL
CNC(CC(C)C)C(=O)NC1C(=O)NC(CC(N)=O)C(=O)NC2C(=O)NC3C(=O)NC(C(=O)N[C@H](C(=O)O)c4cc(O)c(CNCCCNC(=O)c5ccc(O)c(O)c5Cl)c(O)c4-c4cc3ccc4O)C(O)c3ccc(c(Cl)c3)Oc3cc2cc(c3OC2OC(CO)C(O)C(O)C2OC2CC(C)(N)C(O)C(C)O2)Oc2ccc(cc2Cl)C1O (stereo partly drawn) [Compound 22] | > 64 µg/mL | 64 µg/mL (≈ 37.5 µM) | > 64 µg/mL | 16 µg/mL (≈ 9.38 µM) | > 64 µg/mL | > 64 µg/mL | 4 µg/mL (≈ 2.34 µM) | 32 µg/mL (≈ 18.8 µM)
CNC(CC(C)C)C(=O)NC1C(=O)NC(CC(N)=O)C(=O)NC2C(=O)NC3C(=O)NC(C(=O)N[C@H](C(=O)O)c4cc(O)c(CNCCCCNC(=O)c5ccc(O)c(O)c5Cl)c(O)c4-c4cc3ccc4O)C(O)c3ccc(c(Cl)c3)Oc3cc2cc(c3OC2OC(CO)C(O)C(O)C2OC2CC(C)(N)C(O)C(C)O2)Oc2ccc(cc2Cl)C1O (stereo partly drawn) [Compound 23] | > 64 µg/mL | 64 µg/mL (≈ 37.2 µM) | > 64 µg/mL | 64 µg/mL (≈ 37.2 µM) | > 64 µg/mL | > 64 µg/mL | 8 µg/mL (≈ 4.65 µM) | > 64 µg/mL
CNC(CC(C)C)C(=O)NC1C(=O)NC(CC(N)=O)C(=O)NC2C(=O)NC3C(=O)NC(C(=O)N[C@H](C(=O)O)c4cc(O)c(CNCCNC(=O)c5cccc(O)c5O)c(O)c4-c4cc3ccc4O)C(O)c3ccc(c(Cl)c3)Oc3cc2cc(c3OC2OC(CO)C(O)C(O)C2OC2CC(C)(N)C(O)C(C)O2)Oc2ccc(cc2Cl)C1O (stereo partly drawn) [Compound 24] | > 64 µg/mL | 32 µg/mL (≈ 19.3 µM) | > 64 µg/mL | > 64 µg/mL | > 64 µg/mL | > 64 µg/mL | 8 µg/mL (≈ 4.83 µM) | > 64 µg/mL
